One data set relates to Anas platyrhynchos. The settings on record: short-term; oral; feed; mortality.
A further data set has as its system Canidae. The settings on record: Dog Other.
The subject of another data set is Colinus virginianus. The settings on record: acute; oral; mortality.
The subject of the next data set is Coturnix japonica. The settings on record: reproduction developmental.
The subject of the next data set is Oncorhynchus mykiss. The settings on record: for LC50: acute, duration: 96 hours, mortality; for NOEC: chronic/long-term.
The subject of a further data set is Oryctolagus sp. The settings on record: for NOAEL: reproduction developmental.
For another data set, the system named is Rattus norvegicus. The settings on record: oral.
In a further data set the test system is Sus scrofa. The settings on record: oral, Not specified.
The test system of the next data set is Apis mellifera. The settings on record: acute, mortality.
Another data set has as its system Bibionidae. The settings on record: chronic/long-term.
For a further data set, the system named is Daphnia magna. The settings on record: chronic/long-term, duration: 21 days.
A further data set relates to Lepomis macrochirus. The settings on record: acute; duration: 96 hours; mortality.
Another data set deals with Danio rerio. The settings on record: acute, mortality.
Data set [1] concerns Equus caballus. The settings on record: acute; oral; unspecified; mortality.
The subject of the next data set is Gallus gallus. The settings on record: subchronic, M/F.
Another data set concerns Meleagris sp. The settings on record: chronic/long-term; duration: 16 weeks; oral; feed; M/F; no effects.
A further data set has as its system Numida meleagris. The settings on record: subchronic; duration: 35 days; oral; feed; no effects.
Another data set deals with Phasianus sp. The settings on record: subchronic; duration: 35 days; oral; feed; food consumption.
For the next data set, the system named is Tagia sp. The settings on record: acute; duration: 14 days; mortality.
Data set [2] concerns Equus caballus. In words: ALD; higher = less toxic. The settings on record: acute; oral; unspecified; mortality.
The conditions of data set [3]: repeat dose other; other.
Another data set concerns Bovidae. The settings on record: short-term; duration: 28 days; no effects.
The next data set relates to Pontoscolex corethrurus. The settings on record: acute; duration: 14 days; body weight.
The subject of a further data set is Aphidius rhopalosiphi. The settings on record: not reported; mortality.
The next data set relates to Zea sp. The settings on record: acute; duration: 22 days; biomass.
A further data set has as its system Chrysoperla externa. In words: LR50; higher = less toxic. The settings on record: not reported; duration: 34 days; mortality.
The mark [4] stands for this setting: duration: 48 hours, oral, unspecified.

Converted amounts (≈) assume the structure as drawn.

The term NOAEL denotes the highest tested level that showed no adverse finding.

`O=c1oc2ccccc2c(O)c1C1CC(c2ccc(-c3ccccc3)cc2)Cc2ccccc21` (stereo unspecified) [Difenacoum]: the values for the LC50 in the data set with Anas platyrhynchos and with Oncorhynchus mykiss were 3.5 mg/kg-day and 0.064 µg/mL (≈ 0.144 µM), respectively. In addition, the LD50 is 50 mg/kg-day in the data set on Canidae (acute, oral, mortality); 56 mg/kg-day in the data set on Colinus virginianus; 1.8 mg/kg-day in the data set with Rattus norvegicus (acute, mortality); 80 mg/kg-day in the data set with Sus scrofa (acute, mortality). In the data set with Coturnix japonica, this molecule showed an NOEC of more than 0.01 mg/kg-day. This molecule had an NOAEL in the data set with Oryctolagus sp. (hematological) of 0.005 mg/kg-day.
In turn, `CC(COc1ccc(Oc2ccccc2)cc1)Oc1ccccn1` (stereo unspecified) [Pyriproxyfen] gave an LD50 with Apis mellifera (setting [4]) of 74 µg/piece. For the same molecule, the NOEC came to 0.01 mg/L in the data set with Bibionidae (duration: 28 days, other); 1.5e-05 mg/L with Daphnia magna (reproduction); 4.3 µg/L in the data set on Oncorhynchus mykiss (duration: 95 days). This molecule had an LC50 in the data set with Lepomis macrochirus of more than 0.27 µg/mL.
`CC[C@@H](C(=O)[C@@H](C)[C@@H](O)[C@H](C)CCc1ccc(C)c(O)c1C(=O)[O-])[C@H]1O[C@](CC)([C@H]2CC[C@](O)(CC)[C@H](C)O2)C[C@@H]1C.[Na+]` [Lasalocid sodium]: the LEL came to 5 mg/kg-day in the data set with Canidae (repeat dose other, oral, diet, clinical signs); 225 mg/kg-day with Gallus gallus (duration: 13 weeks, growth); 375 mg/kg in the data set on Meleagris sp.; 240 mg/kg with Numida meleagris; 180 mg/kg with Phasianus sp.. For the same molecule, the LC50 in the data set on Danio rerio (duration: 96 hours) was 2.5 µg/mL; in the data set with Tagia sp. it was 71.8 mg/kg. For the same molecule, the LD50 with Equus caballus [1] stood at 15 mg/kg. In addition, the NOEL in the data set on Oryctolagus sp. (developmental, duration: 23 days, oral, gavage, F, New Zealand, development) stood at 0.5 mg/kg-day; in the data set on Rattus norvegicus (chronic, duration: 2 years, M, organ weight) it was 0.5 mg/kg-day. This molecule also returned an ALD in the data set on Equus caballus [2] of 15 mg/kg.
In the case of `Cl.N/C(=N\N=C\c1ccc(Cl)cc1)N/N=C/c1ccc(Cl)cc1` [Robenidine hydrochloride], the NOEC is more than 1.8 mg/kg-day in data set [3] and 50 mg/kg in the data set on Bibionidae (other). Besides, the LEL with Bovidae stood at 60 mg/kg-day; in the data set with Gallus gallus (duration: 9 weeks, oral, diet, no effects), 225 mg/kg-day; in the data set on Gallus gallus (duration: 35 days, oral, diet, Chicken, no effects) it was 82.5 mg/kg-day; with Oryctolagus sp. (subchronic, duration: 48 days, oral, diet, no effects) it was 500 mg/kg-day; in the data set on Sus scrofa (short-term, duration: 28 days, diet, no effects), 120 mg/kg-day. This molecule yielded an NOEL with Canidae (subchronic, duration: 90 days, organ weight) of 7.5 mg/kg-day. Besides, the LC50 in the data set with Danio rerio is 0.036 µg/mL; in the data set on Pontoscolex corethrurus, more than 1000 mg/kg. In the data set with Oryctolagus sp. (duration: 84 days, oral, diet, New Zealand, reproduction), this molecule showed a no observed adverse effect level (NOAEL) of 11 mg/kg-day.
With `COCCOC(=O)C(C#N)(C(=O)c1ccccc1C(F)(F)F)c1ccc(C(C)(C)C)cc1` (stereo unspecified) [Cyflumetofen], the NOEC with Bibionidae (duration: 28 days, development) was not below 0.064 mg/L; with Cyprinus carpio (chronic/long-term, duration: 28 days, growth), not below 0.072 mg/L; with Daphnia magna (mortality), 0.065 mg/L. In the data set on Cyprinus carpio (acute, duration: 96 hours, mortality), this molecule displayed an LC50 of more than 0.54 µg/mL.
As to `C/C=C(\C)C(=O)O[C@H]1C[C@@H](OC(C)=O)[C@@]2(C(=O)OC)CO[C@H]3[C@@H](O)[C@@](C)([C@]45O[C@@]4(C)[C@H]4C[C@@H]5O[C@@H]5OC=C[C@@]54O)[C@H]4[C@]1(CO[C@]4(O)C(=O)OC)[C@@H]32` [Azadirachtin], the LEL with Aphidius rhopalosiphi amounted to 57.6 g/ha; in the data set on Zea sp. it was 30.9 g/ha. In addition, the LD50 with Apis mellifera (dermal) was more than 11.8 µg/piece; in the data set with Apis mellifera (setting [4]) it was more than 8.1 µg/piece; with Apis mellifera (oral, unspecified), more than 8.1 µg/piece. For the same molecule, the NOEC in the data set on Bibionidae (duration: 28 days) amounted to 0.0016 mg/L; with Bibionidae (duration: 28 days, development), 0.0016 mg/L; in the data set with Daphnia magna (reproduction) it was 0.038 mg/L; in the data set with Oncorhynchus mykiss (duration: 28 days, growth), 4.7 µg/L. Besides, the results for the LC50 in the data set on Oncorhynchus mykiss and in the data set with Tagia sp. were 0.048 µg/mL (≈ 0.0666 µM) and more than 1000 mg/kg, respectively. This molecule gave an LR50 with Chrysoperla externa of 0.77 g/ha.

The values are drawn from EPA's ToxValDB 9.5.
